Data as given in patent publication US10823738B2, “Methods for breast cancer treatment” (George Mason University, priority 2015, dated 2020).

Columns and labels:
breast cancer = assay: Bayesian analysis (MCMC simulation on I-SPY 2 data) of the predicted probability of Phase III success; format: in vivo, human
From the text: Adaptive design trials are constructed on the basis of assigning patients to certain signature groups such as signature biomarker groups, the goal being to determine predictive probabilities of success in Phase III trials for various targeted therapeutics. In essence, the design trials provide data that facilitates the determination of which patient biomarker signatures respond to various regimens. A regimen would “graduate” from trial if probability of statistical significance in Phase III reaches 85% for any signature, provided that a minimum of 60 patients have been assigned to the regimen. Neratinib was one of 7 agents tested in the experimental arms of the ISPY-2 TRIAL to date.
Bayesian analysis was completed using the MCMC simulation based on I-SPY 2 data with the following model: pCR˜HR+HER2+biomarker+treatment+treatment*HR+treatment*HER2+treatment*biomarker. No multiple comparison adjustments were applied. The Bayesian analytical engine developed by Don Berry (Yee et al J Clin Oncol. 2012 Dec. 20; 30(36):4584-6), is a mathematical approach that evaluates the clinical performance of a drug (in this case, neratinib) in both the treatment arm (in this case tumor shrinkage estimates by size changes observed by MRI), coupled with complete pathological response (pCR) as measured as the final response determinant, and the response of the predicate therapy in the control arm. This evaluation determined success of a given therapy for a Phase III trial, and in this case, it was determined that phosphorylation of EGFR at Y1173 was not only statistically significant at predicting or assessing response to neratinib in all patients regardless of hormone receptor levels and HER2 levels (HER2+, HER2− and HR+ and HR−), but when patients with high levels of phosphorylated EGFR (Y1173) were added to the HR−/HER2+ subgroup, the prevalence of ‘biomarker-positive’ patients increased by 50%, while increasing the predicted probability of Phase III success to 90%. […]

HER2− breast cancer = assay: I-SPY 2 TRIAL: pCR response of breast cancer patients treated with veliparib; format: in vivo, human
From the text: Currently, treatment of Stage II/III breast cancer involves neoadjuvant treatment (pre-surgical) with drug regimens that may include therapies targeting specific molecular defects. Disclosed herein are novel methods for treatment of breast cancer comprising identifying biomarkers that predict response to therapeutic agents used in the pre-surgical stage of treatment of cancer. Subjects providing samples (pre-treatment biopsies) for studies described herein were characterized based on measurement of estrogen/hormone receptor (HR) and HER2 (c-erbB2), and were described by HER2−/HR−. HER2+/HR+. HER2+/HR−, HER2−/HR+ phenotypes. Response to treatment was determined by the amount of tumor shrinkage and a lack of appreciable tumor evident at surgery. […] This microarray allows for quantitative measurement of the amount of proteins and/or phosphorylated proteins in the tumor or cancerous cells from pretreatment sample, for example from biopsy specimens of women with Stage II/III breast cancer. […]
This example tested the hypothesis that the response to the PARP inhibitor, veliparib, was predicted by specific biomarkers. […] Various proteins were evaluated as biomarkers of veliparib response using reverse phase protein microarray (RPMA) data from pre-treatment laser capture microdissection (LCM) purified tumor epithelium. […]

Compound | Phase III success (predicted probability) (breast cancer; EGFR Y1173 used as a single marker, all patients) | Phase III success (predicted probability) (breast cancer; HER2+/HR− status as measured by immunohistochemical methods) | predicted probability of Phase III success (breast cancer; patients with high levels of phosphorylated EGFR (Y1173) added to the HR−/HER2+ subgroup) | clinical response (HER2− breast cancer; HER2−/HR− subtype) | complete pathological response (pCR) (HER2− breast cancer; women with both HR+ and HR− tumors)
CCOc1cc2ncc(C#N)c(Nc3ccc(OCc4ccccn4)c(Cl)c3)c2cc1NC(=O)/C=C/CN(C)C [neratinib] | 93% | 87% | 90% | – | –
C[C@]1(c2nc3c(C(N)=O)cccc3[nH]2)CCCN1 [veliparib] | – | – | – | statistically significant clinical response | pCR was observed
